Laboratory results reported in patent US12441717B2, “Crystal form of polycyclic anaplastic lymphoma kinase inhibitor” (SHANDONG XUANZHU PHARMA CO., LTD., priority 2020, dated 2025).
Where “and” joins values, the source holds several entries; their conditions need not be identical. Equal entries are not always repeated.

Tests used:
Assay type in all cases: physicochemical
[1] = Fluidity after universal pulverization (angle of repose, Carr's index, electrostatic phenomenon); conditions: for Angle of repose / Carr's index % / ρbulk / ρtapped: after universal pulverization
Procedure: The amorphous form and crystal forms A and B of the compound of formula (1) were treated by universal pulverization.
The fluidity of the crystal form could be characterized by the angle of repose and the Carr's index. It was generally believed that the smaller the angle of repose and the Carr's index, the better the fluidity.

[2] = Solubility in buffered salt solutions of different pH (HPLC external standard); conditions: for solubility at 24 h: buffered salt solution, 25 °C, thermodynamic from solid
Source text: The solubility (mg/mL) of crystal forms A and B and the amorphous form of the compound of formula (1) under different pH conditions were as shown in Table 1.

[3] = Moisture absorbability test (Chinese Pharmacopoeia 2015, General Principle 9103); conditions: for Moisture absorbability results: wrapped cells end with 'absorbability'
Source text: A Test sample was taken and determined according to Chinese Pharmacopoeia, 2015 edition, vol. four, General Principle 9103, Guiding Principles for Drug Moisture Absorbability Test.

[4] = Stability study (high temperature, high humidity, light): properties, related substances, moisture, XRD; conditions: for Stability under high temperature, high humidity and light conditions (conclusion): overall conclusion of the stability study
Procedure: 2.1 Study Conditions for Crystal Form B of the Compound of Formula (1): • Placed at 105° C. for 5 days, left open, and sampled and tested on days 1 and 5; • placed at 60° C. for 10 days, left open, and sampled and tested on days 5 and 10; • placed under 25° C. RH 92.5% conditions for 10 days, left open, and sampled and tested on days 5 and 10; • under light conditions, using open and closed conditions (polyethylene bag+composite film bag), and sampling and testing when illumination requirements were met; and • placed under 40° C. RH 75% conditions for 1 month, left open, and sampled and tested on day 10 and after 1 month.
2.2 Study Conditions for Crystal Form a of the Compound of Formula (1): • Placed at 105° C. for 5 days, left open, and sampled and tested on days 1 and 5; • placed at 60° C. for 10 days, left open, and sampled and tested on days 5 and 10; • placed under 25° C. RH 92.5% conditions for 10 days, left open, and sampled and tested on days 5 and 10; • under light conditions, left open, and sampled and tested when illumination requirements were met; and • placed under 40° C. RH 75% conditions for 10 days, left open, and sampled and tested on days 5 and 10.
2.3 Study Conditions for the Amorphous Form of the Compound of Formula (1): • Placed at 60° C. for 10 days, left open, and sampled and tested on day 10; placed under 25° C. RH 92.5% conditions for 10 days, left open, and sampled and tested on day 10; and • under light conditions, using open and closed conditions (polyethylene bag+composite film bag), and sampling and testing when illumination requirements were met.
Illumination requirements: ICH Q1B Stability Test: Photostability Testing of New Drug Substances and formulation.
Determination of related substances: Determination by high performance liquid chromatography in accordance with “Chinese Pharmacopoeia”, 2015 edition, Vol. four, General Principle 0512.
Moisture determination: Determination according to “Chinese Pharmacopoeia”, 2015 edition, vol. four, General Principle 0832, Moisture Determination Method, First Method (Fischer's method), 2 Coulometric Titration Method.
XRD determination: Determination according to “Chinese Pharmacopoeia”, 2015 edition, vol. four, General Principle 0451 X-ray Diffraction Method—Second Method, Powder X-ray Diffraction Method.

[5] = buffered salt solution pH 1.0, shaken at 25° C. for 24 h
[6] = buffered salt solution pH 4.5, shaken at 25° C. for 24 h
[7] = buffered salt solution pH 6.8, shaken at 25° C. for 24 h
[8] = buffered salt solution pH 7.4, shaken at 25° C. for 24 h
[9] = Day 0, coulometric Fischer titration
[10] = Day 0, related substances by HPLC
[11] = Day 10, at 25° C. RH 92.5%, open
[12] = Light - closed (polyethylene bag+composite film bag), ICH Q1B illumination
[13] = Light - closed, ICH Q1B illumination
[14] = Light - open, ICH Q1B illumination
[15] = Light - open, pattern compared with day 0
[16] = Day 5, at 25° C. RH 92.5%, open

SMILES: Cc1cc(Nc2ncc(Cl)c(Nc3ccccc3S(=O)(=O)C(C)C)n2)c2c(c1C1CCNCC1)OCCO2 [Amorphous form, 5-chloro-N^4-(2-(isopropylsulfonyl)phenyl)-N^2-(7-methyl-8-(piperidin-4-yl)-2,3-dihydrobenzo[b][1,4]dioxin-5-yl)pyrimidine-2,4-diamine]
- Electrostatic phenomenon after pulverization [1]: serious electrostatic phenomenon
- Angle of repose [1]: 50.6 °
- Solubility [2, 5]: 11200 µg/mL
- Solubility [2, 6]: 17 µg/mL
- Solubility [2, 7]: 10 µg/mL
- Solubility [2, 8]: 8.7 µg/mL
- Hygroscopic weight gain (%) [3]: 2.8%
- Moisture absorbability results [3]: Having moisture
- Properties ([4]; Day 0): Off-white powder
- Moisture % [4, 9]: 0.92%
- Overall related % [4, 10]: 0.84%
- Moisture % [4, 11]: 6.9%
- Overall related % [4, 11]: 0.90%
- Properties [4, 11]: Off-white powder
- XRD ([4]; Day 10, at 25° C. RH 92.5%, open, pattern compared with day 0 (wrapped cell reads 'same as day 0')): Same as day 0
- Moisture % ([4]; Day 10, at 60° C., open): 0.69%
- Overall related % ([4]; Day 10, at 60° C., open): 1.78%
- Properties ([4]; Day 10, at 60° C., open): Light yellow powder
- XRD ([4]; Day 10, at 60° C., open, pattern compared with day 0 (wrapped cell reads 'same as day 0')): Same as day 0
- Properties [4, 12]: Off-white powder
- Moisture % [4, 13]: 0.62%
- Overall related % [4, 13]: 0.88%
- XRD ([4]; Light - closed, pattern compared with day 0 (wrapped cell reads 'same as day 0')): Same as day 0
- Moisture % [4, 14]: 2.3%
- Overall related % [4, 14]: 10.19%
- Properties [4, 14]: Light yellow powder
- XRD [4, 15]: Same as day 0
- Stability under high temperature, high humidity and light conditions (conclusion) [4]: unstable

SMILES: Cc1cc(Nc2ncc(Cl)c(Nc3ccccc3S(=O)(=O)C(C)C)n2)c2c(c1C1CCNCC1)OCCO2 [Crystal form A, 5-chloro-N^4-(2-(isopropylsulfonyl)phenyl)-N^2-(7-methyl-8-(piperidin-4-yl)-2,3-dihydrobenzo[b][1,4]dioxin-5-yl)pyrimidine-2,4-diamine]
- Electrostatic phenomenon after pulverization [1]: no obvious electrostatic phenomenon
- Angle of repose [1]: 53 °
- Carr's index % [1]: 45%
- ρbulk [1]: 0.35 g/mL
- ρtapped [1]: 0.63 g/mL
- Solubility [2, 6]: 2 µg/mL
- Solubility [2, 7]: Not detected
- Solubility [2, 8]: Not detected
- solubility at 24 h ([2]; pH 1, simulated gastric fluid, buffered salt solution pH 1.0, shaken at 25° C. for 24 h): 16900 µg/mL
- Hygroscopic weight gain (%) [3]: 0.08%
- Moisture absorbability results [3]: no or almost no moisture absorbability
- Properties ([4]; Day 0): Off-white powder
- Moisture % [4, 9]: 0.25%
- Overall related % [4, 10]: 0.64%
- Moisture % ([4]; Day 1, at 105° C., open): 0.18%
- Overall related % ([4]; Day 1, at 105° C., open): 0.78%
- Properties ([4]; Day 1, at 105° C., open): Off-white powder
- Moisture % [4, 16]: 0.23%
- Overall related % [4, 16]: 0.69%
- Properties [4, 16]: Off-white powder
- Moisture % ([4]; Day 5, at 40° C. RH 75%, open): 0.23%
- Overall related % ([4]; Day 5, at 40° C. RH 75%, open): 0.79%
- Properties ([4]; Day 5, at 40° C. RH 75%, open): Off-white powder
- Moisture % ([4]; Day 5, at 60° C., open): 0.17%
- Overall related % ([4]; Day 5, at 60° C., open): 0.81%
- Properties ([4]; Day 5, at 60° C., open): Off-white powder
- Moisture % ([4]; Day 5, at 105° C., open): 0.17%
- Overall related % ([4]; Day 5, at 105° C., open): 1.6%
- Properties ([4]; Day 5, at 105° C., open): Off-white powder
- Moisture % [4, 11]: 0.17%
- Overall related % [4, 11]: 0.78%
- Properties [4, 11]: Off-white powder
- Moisture % ([4]; Day 10, at 40° C. RH 75%, open): 0.15%
- Overall related % ([4]; Day 10, at 40° C. RH 75%, open): 0.89%
- Properties ([4]; Day 10, at 40° C. RH 75%, open): Off-white powder
- Moisture % ([4]; Day 10, at 60° C., open): 0.11%
- Overall related % ([4]; Day 10, at 60° C., open): 1.0%
- Properties ([4]; Day 10, at 60° C., open): Off-white powder
- Moisture % [4, 14]: 0.23%
- Overall related % [4, 14]: 1.9%
- Properties [4, 14]: Light yellow powder
- XRD [4, 15]: Same as day 0
- Stability under high temperature, high humidity and light conditions (conclusion) [4]: relatively stable

SMILES: Cc1cc(Nc2ncc(Cl)c(Nc3ccccc3S(=O)(=O)C(C)C)n2)c2c(c1C1CCNCC1)OCCO2 [Crystal form B, 5-chloro-N^4-(2-(isopropylsulfonyl)phenyl)-N^2-(7-methyl-8-(piperidin-4-yl)-2,3-dihydrobenzo[b][1,4]dioxin-5-yl)pyrimidine-2,4-diamine]
- Electrostatic phenomenon after pulverization [1]: no electrostatic phenomenon
- Angle of repose [1]: 45.8 °
- Carr's index % [1]: 30%
- ρbulk [1]: 0.477 g/mL
- ρtapped [1]: 0.683 g/mL
- Solubility [2, 5]: 19800 µg/mL
- Solubility [2, 6]: 22 µg/mL
- solubility at 24 h ([2]; pH 6.8, aqueous buffer, buffered salt solution pH 6.8, shaken at 25° C. for 24 h): 13 µg/mL
- solubility at 24 h ([2]; pH 7.4, aqueous buffer, buffered salt solution pH 7.4, shaken at 25° C. for 24 h): 10 µg/mL
- Hygroscopic weight gain (%) [3]: 0.11%
- Moisture absorbability results [3]: no or almost no moisture absorbability
- Moisture % ([4]; 1 M, at 40° C. RH 75%, open): 0.39%
- Overall related % ([4]; 1 M, at 40° C. RH 75%, open): 0.11%
- Properties ([4]; 1 M, at 40° C. RH 75%, open): Off-white crystalline
- Moisture % [4, 9]: 0.38% and 0.27%
- Overall related % [4, 10]: 0.09% and 0.10%
- Moisture % ([4]; Day 1, at 105° C., open): 0.34%
- Overall related % ([4]; Day 1, at 105° C., open): 0.10%
- Properties ([4]; Day 1, at 105° C., open): Off-white crystalline
- Moisture % [4, 16]: 0.37%
- Overall related % [4, 16]: 0.07%
- Properties [4, 16]: Off-white crystalline
- Moisture % ([4]; Day 5, at 60° C., open): 0.26%
- Overall related % ([4]; Day 5, at 60° C., open): 0.08%
- Properties ([4]; Day 5, at 60° C., open): Off-white crystalline
- Moisture % ([4]; Day 5, at 105° C., open): 0.37%
- Overall related % ([4]; Day 5, at 105° C., open): 0.08%
- Properties ([4]; Day 5, at 105° C., open): Off-white crystalline
- Moisture % [4, 11]: 0.43%
- Overall related % [4, 11]: 0.10%
- Properties [4, 11]: Off-white crystalline
- Moisture % ([4]; Day 10, at 40° C. RH 75%, open): 0.42%
- Overall related % ([4]; Day 10, at 40° C. RH 75%, open): 0.09%
- Properties ([4]; Day 10, at 40° C. RH 75%, open): Off-white crystalline
- Moisture % ([4]; Day 10, at 60° C., open): 0.45%
- Overall related % ([4]; Day 10, at 60° C., open): 0.10%
- Properties ([4]; Day 10, at 60° C., open): Off-white crystalline
- Properties [4, 12]: Off-white crystalline
- Moisture % [4, 13]: 0.41%
- Overall related % [4, 13]: 0.10%
- Moisture % [4, 14]: 0.21%
- Overall related % [4, 14]: 0.54%
- Properties [4, 14]: Yellow powder
- XRD [4, 15]: Same as day 0
- Stability under high temperature, high humidity and light conditions (conclusion) [4]: relatively stable
